Assay results: PubChem BioAssay AID488890 (Southern Research Specialized Biocontainment Screening …, 2010)
Inconclusive results are not listed. The source made the active and inactive calls. No rule for the calls is given here.

Test system: Mycobacterium tuberculosis non-replicating, growth inhibition
Test: growth inhibition of non-replicating M. tuberculosis (AID 488890)

SMILES | IC50
Cc1cccc(Cn2ccc(NC(=O)c3ccc4c(c3)OCO4)n2)c1 | 4.51 µM
Nc1c(C(=O)NC2CCCCC2)nsc1C(=O)OCC(=O)NC1CCCCC1 | 3.27 µM
CCS(=O)(=O)c1ncc(Cl)c(C(=O)Nc2ccc(S(=O)(=O)N(C)c3ccccc3)cc2)n1 | 7.18 µM
COc1c[nH]n(C2CCCCC2)c(=O)c1=O | 8.76 µM
NCCOc1ccc(C23CC4CC(CC(C4)C2)C3)cc1 | 16 µM (inactive)
CC(=O)N(Cc1ccc(F)cc1)C1=C(NCCc2ccccc2)C(=O)c2ccccc2C1=O | 4.4 µM
FC(F)(Cl)c1nnc2ccc(Cl)nn12 | 1.38 µM
CC(=O)n1cc(/C=C2/N=C(c3ccccc3)OC2=O)c2ccccc21 | 2.59 µM
O=C(NCc1ccc(F)cc1)c1ccc(Br)o1 | 0.51 µM
CCC(=O)N1CCN(c2cc3c(cc2F)c(=O)c(C(=O)O)cn3CC)CC1 | 7.67 µM
O=C(NCc1cccs1)c1cc(-c2ccc(O)cc2)on1 | 23.3 µM (inactive)
O=C(Cc1ccc([N+](=O)[O-])cc1)N/N=C/c1ccc([N+](=O)[O-])o1 | 21.8 µM (inactive)
Cc1ccc(C(=O)CCNc2ccc(F)c(Cl)c2)o1 | 11 µM (inactive)
CC1(C)CC(=O)C2=C(C1)OC(N)=C(C#N)C2C#Cc1ccccc1 (configuration not stated) | 4.07 µM
O=C(OCn1ncc(Br)c(Br)c1=O)c1ccccc1Cl | 6.27 µM
O=C(Nc1nnc(-c2ccccc2Cl)o1)c1ccc(S(=O)(=O)N2CCCCCC2)cc1 | 8.7 µM
CCn1c(NC(=O)c2nn(C)cc2Br)nc2ccccc21 | 4.97 µM
O=[N+]([O-])c1ccc(-n2nnnc2-c2ccccc2)c([N+](=O)[O-])c1 | 6.37 µM
COC(=O)COc1ccc2cc(-c3ccc(OC)cc3)c(=O)oc2c1 | 1.41 µM
O=C1OC(/C=C/c2ccccc2)=NC/1=C\c1cccnc1 | 13 µM (inactive)
Clc1ccc(-c2ccc(CNCc3ccccn3)o2)cc1 | 0.77 µM

SMILES | IC50
C/C(=N\NC(=O)COc1cccc(C)c1)c1ccc2ccccc2c1O | 0.18 µM
COc1cccc(OC(=O)c2cc3ccccc3oc2=O)c1 | 14.2 µM (inactive)
Cc1[nH]n(-c2ccccc2)c(=O)c1C=Nc1cnc2ccccc2c1 | 6.23 µM
Cc1c(CN(C)C)c2c(n1Cc1ccccc1)C(=O)c1ccc(Br)cc1-2 | 16 µM (inactive)
CCOC(=O)N/N=C\c1ccc([N+](=O)[O-])s1 | 9.1 µM
O=C(COC(=O)c1cccs1)NCCC1=CCCCC1 | 14.1 µM (inactive)
COc1cccc(-c2nnc(NC(=O)c3ccc4ncsc4c3)o2)c1 | 9.06 µM
NC(=S)n1[nH]c(-c2ccc([N+](=O)[O-])cc2)c(N=Nc2ccc(O)cc2)c1=O | 18.5 µM (inactive)
CCOc1ccc(C(=O)N/N=C(/C)C2C(=O)c3ccccc3C2=O)cc1 | 0.47 µM
COc1ccc(S(=O)(=O)NCc2ccc3c(c2)cc(C)n3C)cc1 | 19.9 µM (inactive)
O=C(COC(=O)CC1CCCC1)Nc1ccc(OC(F)F)cc1 | 10.8 µM (inactive)
CC1CC(C)CN(CCOCCSc2ccc(Cl)cc2)C1 (configuration not stated) | 30.7 µM (inactive)
Cc1ccc(C)c(-c2nnc(NC(=O)COc3ccccc3)o2)c1 | 1.29 µM
COC(=O)CCCC(=O)N1CCCC(C(=O)c2ccc(-c3ccccc3)cc2)C1 (configuration not stated) | 35.8 µM (inactive)
CCOC(=O)c1nn(-c2ccccc2)c2nc(Nc3ccccc3)cc(=O)n12 | 4.74 µM
CC(C)c1ccc2c(c1)C(N1CCNCC1)Cc1ccc(F)cc1S2 (configuration not stated) | 14.5 µM (inactive)
Cc1ccc(NC(=O)COc2ccc3c(c2)CCC3)nc1 | 6.66 µM
O=C(c1ccc([N+](=O)[O-])cc1[N+](=O)[O-])N1CCc2ccccc21 | 3.34 µM
Cc1ccc(C)c(-c2nnc(NC(=O)c3ccco3)o2)c1 | 0.66 µM
O=C(CC1CCCC1)OCn1nnc2ccccc2c1=O | 14 µM (inactive)
CCOc1ccc(OCC(=O)Nc2ccc(OC)cc2)cc1 | 10.2 µM (inactive)

SMILES | IC50
Cc1cccc(CSc2nnc(-c3ccco3)o2)c1 | 0.67 µM
CCc1c(C)c2ccc(OCC(=O)OC)cc2oc1=O | 9.03 µM
CCOc1ccc(OCC(=O)OCc2cc(=O)n3cc(Br)ccc3n2)cc1 | 8.96 µM
COc1cccc(C(=O)N/N=C(/c2ccccc2)c2ccccn2)c1 | 4.04 µM
CCCCNC(=O)COC(=O)c1cc(Br)ccc1Cl | 3.86 µM
COc1ccc(Nc2cc(C)nc(-n3nc(C)cc3C)n2)cc1 | 4.02 µM
COc1ccc(NC(=O)CCCN2C(=O)/C(=C\c3ccco3)SC2=S)cc1 | 7.93 µM
C=CCNc1nc(C(=O)OCC(=O)c2cccc(Br)c2)cs1 | 20.8 µM (inactive)
O=C(CCCOc1ccccc1)OCn1nnc2ccccc2c1=O | 24.8 µM (inactive)
O=C(OCC(=O)N1CCc2ccccc2C1)c1cccc([N+](=O)[O-])c1 | 9.6 µM
COc1cc(NC(=O)C/C(C)=N/NC(=O)c2cccs2)c(OC)cc1Cl | 7.93 µM
CCCCOC(=O)c1ccc(NC(=O)c2nn(C)cc2Br)cc1 | 20.4 µM (inactive)
CCOC(=O)COc1ccc(C(=O)c2ccccc2)c(O)c1 | 1.24 µM
O=C(OCn1nnc2ccccc2c1=O)C1CCCCC1 | 22 µM (inactive)
Cc1cccc(Nc2nc(-c3ccccn3)cs2)n1 | 0.95 µM
O=C(OCc1cccc(F)c1)c1ccc2c(=O)n3c(nc2c1)CCC3 | 8.62 µM
CCS(=O)(=O)c1ncc(Cl)c(C(=O)Nc2ccc(C)cc2)n1 | 4.64 µM
O=C(COC(=O)c1ccccc1Cl)NCCC1=CCCCC1 | 14.1 µM (inactive)
C/C(CC(=O)Nc1ccc(C)c(Cl)c1)=N\NC(=O)c1ccco1 | 28.8 µM (inactive)
O=C(c1ccccc1[N+](=O)[O-])N1N=C(c2ccccc2)CC1(O)C(F)(F)F (configuration not stated) | 3.92 µM
Cc1ccc(C(=O)OCC(=O)N2CCCCCC2)c(O)c1 | 8.95 µM

SMILES | IC50
Clc1cccc(CNCCNCc2cccc(Cl)c2)c1 | 12.1 µM (inactive)
CCN(Cc1ccccc1)c1ccc(/C=N/N=C(N)N)cc1 | 5.74 µM
O=C(OCC(=O)N1CCCCC1)c1cc2ccccc2cc1O | 5.84 µM
Cc1nn2c(NCc3ccccn3)cc(C(C)C)nc2c1-c1ccccc1 | 1.44 µM
Oc1ccccc1CN1CCCC(N2CCN(c3cccc(C(F)(F)F)c3)CC2)C1 (configuration not stated) | 21.5 µM (inactive)
CN(C)CCN1C(=O)c2oc3ccccc3c(=O)c2C1c1cccc(Br)c1 (configuration not stated) | 23.1 µM (inactive)
O=C(CN1CCCCC1)Nc1nnc(-c2ccc([N+](=O)[O-])cc2)s1 | 11.7 µM (inactive)
Brc1c(-c2ccc3c(c2)OCO3)nc2ncccn12 | 1.1 µM
Cc1ccc(NC(=O)c2ccc([N+](=O)[O-])o2)c(C)c1 | 8.9 µM
OC(CNCC1CCCO1)Cn1c2ccc(Cl)cc2c2cc(Cl)ccc21 (configuration not stated) | 8.38 µM
Cc1nc([N+](=O)[O-])c(Br)n1CC(=O)c1ccccc1 | 25.5 µM (inactive)
CCOc1ccc(OCc2ccc(C(=O)OCc3ccccn3)o2)cc1 | 8.49 µM
O=C(CCN1C(=O)S/C(=C\c2ccc(F)cc2)C1=O)Nc1ccc(C(=O)O)c(O)c1 | 0.17 µM
O=C(Nc1nc2ccccc2[nH]1)c1cccc(Cl)c1 | 9.06 µM
CCCOC(=O)c1ccc(-c2ccc(C=O)o2)cc1 | 1.27 µM
COc1ccc(-c2cc(C(F)(F)F)nc(S(C)(=O)=O)n2)cc1 | 2.87 µM
COc1cc(C2C3=C(CC(C)(C)CC3=O)OC(N)=C2[N+](=O)[O-])ccc1O (configuration not stated) | 50 µM (inactive)
Cc1ccc(CO/N=C/c2c(O)cc(C)oc2=O)cc1 | 16.6 µM (inactive)
CCOc1cccc2cc(C(=O)Nc3nccs3)c(=O)oc12 | 2.26 µM
